Test [1] deals with Serine/threonine-protein kinase PAK 1 (Homo sapiens, UniProt Q13153). The test is described as follows: Inhibition of human recombinant PAK1 kinase domain assessed as phosphorylation of FRET peptide substrate at Ser/Thr20 by […] assay.
Test [2] concerns the target Serine/threonine-protein kinase PAK 4 (Homo sapiens, UniProt O96013). The test is described as follows: Inhibition of human recombinant PAK4 kinase domain assessed as phosphorylation of FRET peptide substrate at Ser/Thr20 by […] assay.

Sequence of Serine/threonine-protein kinase PAK 1 (Q13153 whole entry, the tested form may be a part): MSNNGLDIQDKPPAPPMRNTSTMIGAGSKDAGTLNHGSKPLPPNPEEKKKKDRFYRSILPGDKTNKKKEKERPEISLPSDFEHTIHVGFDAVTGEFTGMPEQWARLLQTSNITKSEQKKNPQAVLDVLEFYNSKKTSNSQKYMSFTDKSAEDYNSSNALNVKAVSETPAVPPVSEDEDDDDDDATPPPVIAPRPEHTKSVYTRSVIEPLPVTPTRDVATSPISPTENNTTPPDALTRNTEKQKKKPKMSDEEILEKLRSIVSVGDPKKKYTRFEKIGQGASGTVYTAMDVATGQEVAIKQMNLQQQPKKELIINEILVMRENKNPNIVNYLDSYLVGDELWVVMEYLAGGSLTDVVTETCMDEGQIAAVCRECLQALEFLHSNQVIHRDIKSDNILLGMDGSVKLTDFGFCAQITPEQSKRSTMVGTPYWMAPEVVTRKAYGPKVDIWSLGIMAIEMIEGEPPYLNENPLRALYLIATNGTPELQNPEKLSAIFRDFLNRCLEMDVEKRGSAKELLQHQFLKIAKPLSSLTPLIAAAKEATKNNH
Sequence of Serine/threonine-protein kinase PAK 4 (O96013 whole entry, the tested form may be a part): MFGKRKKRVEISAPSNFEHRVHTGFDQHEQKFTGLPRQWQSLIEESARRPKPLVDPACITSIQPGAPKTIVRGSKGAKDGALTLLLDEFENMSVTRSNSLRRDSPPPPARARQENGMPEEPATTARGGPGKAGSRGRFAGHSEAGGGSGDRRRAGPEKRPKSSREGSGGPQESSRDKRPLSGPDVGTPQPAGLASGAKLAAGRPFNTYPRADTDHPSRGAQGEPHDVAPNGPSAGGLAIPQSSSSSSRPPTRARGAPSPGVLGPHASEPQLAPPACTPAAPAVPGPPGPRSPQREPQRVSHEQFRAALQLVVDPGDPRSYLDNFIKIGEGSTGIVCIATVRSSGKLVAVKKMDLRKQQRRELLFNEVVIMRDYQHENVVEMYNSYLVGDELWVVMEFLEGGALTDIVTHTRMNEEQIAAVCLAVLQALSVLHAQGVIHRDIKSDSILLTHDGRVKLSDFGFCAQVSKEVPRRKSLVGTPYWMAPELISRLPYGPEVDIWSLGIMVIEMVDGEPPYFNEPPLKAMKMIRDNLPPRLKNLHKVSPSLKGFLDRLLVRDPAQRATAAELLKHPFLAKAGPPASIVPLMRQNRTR

Take `CNc1nc2ccc(C#C[C@@](C)(O)c3cc(C)on3)cc2n1-c1ncnc(N)n1`: the values for the IC50 in test [1] and in test [2] were over 4500 nM and 35.5 nM, respectively. As to `CCNc1nc2ccc(C#C[C@@](C)(O)c3cc(C)on3)cc2n1-c1ncnc(N)n1`, the IC50 is over 4500 nM in test [1] and 5.3 nM in test [2]. In the same order, the values of `CCNc1nc2ccc(C#CC(C)(C)O)cc2n1-c1ncnc(N)n1` are 9600 nM and 65.5 nM.

For the compound `COCCNc1nc2ccc(C#CC3(O)CCCCC3)cc2n1-c1ccnc(N)n1`, the IC50 in test [2] came out at 4.77 nM.

Values taken from ChEMBL document CHEMBL3352201, “P21-Activated Kinase 4 (PAK4) Inhibitors as Potential Cancer Therapy” (ACS Med Chem Lett, 2015).
